Take `Cc1cc(Oc2[nH]c(=O)[nH]c(=O)c2C(C)C)cc(C2OCCO2)c1`: the melting point fell in the range of 201 to 203 °C.

`CC(C)SN1N=C(c2cccc([N+](=O)[O-])c2)C(SC(C)C)(SC(C)C)C1=O` came in with a melting point of 73 to 74 °C.

In turn, `O=C(Cl)C(=O)c1cn(Cc2ccc(F)cc2)c2ccc(OCc3ccccc3)cc12` displayed a melting point of 155 to 158 °C.

Compound `CS(=O)(=O)c1cccc(NC(=O)c2ccccc2O)c1` registered a melting point of 210 to 212 °C.

The compound `CCOC(=O)c1nn(-c2ccc(Cl)cc2)c(=O)c(C#N)c1C` came in with a melting point of 160 to 161 °C.

Compound `CS(=O)(=O)c1ccc(C(=O)N[C@H]2CC[C@H](CCN3CCN(c4nccc5c4OCC5)CC3)CC2)s1` yielded a melting point of 212 °C.

As for `COC1CCC2C3CCC4CC(C)(O)CCC4(C)C3CCC12C` (centres undefined), the melting point fell in the range of 151 to 154 °C.

Consider `Cc1cccc(C(=O)Nc2cc(-c3c(-c4ccc(F)c(C)c4)nc4cccnn34)ccn2)c1`, for which the melting point fell in the range of 203 to 204 °C.

`CCC1CCCCN1C(=O)C=Cc1c(-c2cccc(NC(=O)OC)c2)nn2ccccc12` (centres undefined): the melting point lay in the range of 143 to 145 °C.

As for `Cc1nn(C)c(C)c1S(=O)(=O)n1c(CCCC(=O)O)cc2cc(Cl)ccc21`, the melting point lay within 142 to 145 °C.

As to `COc1ccc(C2=C(C(=O)O)N(Cc3ccc4c(c3)OCO4)S(=O)(=O)c3ccccc32)cc1OC`, the melting point is 267 to 268 °C.

With `O=C(OCCN1CCCC1)c1ccccc1Nc1ccnc2cc(Cl)ccc12`, the melting point lay in the range of 102 to 104 °C.

As to `N#CCc1cc(Cl)ncc1[N+](=O)[O-]`, the melting point fell in the range of 87 to 89 °C.

As for `Cc1nc2c(C)cccn2c(=O)c1CCN1CC=C(c2c[nH]c3ccccc23)CC1`, the melting point fell in the range of 210 to 212 °C.

In turn, `O=C(NCc1ccn(-c2cc3nc(C(=O)O)c(=O)[nH]c3cc2C(F)(F)F)c1)Nc1cccc(C(=O)O)c1` had a melting point of 300 °C.

Compound `CCCCCCCCCCCCCCCCOc1ccc(-c2nc(CC(=O)OCC)c(OCC)o2)cc1` showed a melting point of 44 to 45 °C.

On to `CC1(c2ccccc2)C(=O)c2c(cc(OCC(=O)O)c(Cl)c2Cl)C1c1ccccc1` (centres undefined), for which the melting point lay within 203 to 205 °C.

In the case of `CN(C)N=Nc1cc(-c2ccccc2)sc1C(=O)O`, the melting point fell in the range of 162 to 166 °C.

Regarding `O=C1CCc2cc(Oc3ccccc3)ccc21`, the melting point lay within 92 to 93 °C.

`COc1ccc(CNc2cccc3nc(-c4cccc(Cl)c4)oc23)cc1OC1CCCC1` registered a melting point of 133 to 134 °C.

Turning to `CC(C)(C)OC(=O)N1[C@@H](C2CC2)[C@H](C(=O)O)OC1(C)C`, the melting point lay in the range of 104 to 108 °C.

Take `CN(C)CCc1c[nH]c2ccc(C=CC(=O)NCc3ccc([N+](=O)[O-])cc3)cc12`: the melting point lay in the range of 177 to 187 °C.

As for `COc1ccc(C=O)cc1OC(=O)CCl`, the melting point is 88 to 89 °C.

In turn, `O=C(Nc1nc(-c2ccccc2)cs1)Nc1nc(-c2ccccc2)cs1` had a melting point of 285 to 287 °C.

Turning to `CN1CC(=O)Nc2ccc(Cl)c(F)c2C1=O`, the melting point was greater than 250 °C.

With `COc1cc(Br)cc([N+](=O)[O-])c1N`, the melting point lay in the range of 137 to 138 °C.

`CC(CCCc1ccccc1)c1cc(O)c2c3c(c(=O)oc2c1)CCC(=O)C3` (centres undefined): the melting point was 163 to 164 °C.

On to `CC(C)(C)OC(=O)Cn1c(C(=O)OCc2ccccc2)cc2cnccc21`, for which the melting point turned out to be 94 °C.

`CN(C(=O)CN(C(=O)CNC(=O)Nc1cccc(Cc2nnn[nH]2)c1)c1ccccc1)c1ccccc1` came in with a melting point of 206 °C.

As for `NC(=O)C(=C1CSc2ccccc2N1)c1ccc(Cl)cc1`, the melting point was in the range of 188 to 191 °C.

`O=C(O)C1CCc2c(oc3cccc(Cl)c23)C1` (centres undefined) came in with a melting point of 189 to 190 °C.

The compound `CN1C(C)(C)CC2(CC1(C)C)NC(=O)N(CC(O)CN1C(=O)NC3(CC(C)(C)N(C)C(C)(C)C3)C1=O)C2=O` came in with a melting point of 255 to 256 °C.

In turn, `CCNC(=O)Nc1ccc(C(O)(C(F)(F)F)C(F)(F)F)cc1` yielded a melting point of 178 to 179 °C.

The compound `C=CC(=O)Oc1ccc(C(=O)c2ccccc2)cc1` gave a melting point of 44 to 46 °C.

The compound `CC1(C)[C@@H](C=C(c2ccccc2)c2ccccc2)[C@@H]1C(=O)O` (relative stereo) yielded a melting point of 115 °C.

In turn, `O=C1CC(Br)C(=O)N1c1ccc(F)cc1` (centres undefined) registered a melting point of 154 °C.

Compound `O=c1[nH]c2cc(F)ccc2n1-c1cc(Cl)ccc1O` had a melting point of 256 to 260 °C.

On to `COc1cc(OC)nc(Oc2cccc3c2C(=O)OC3Cl)n1` (centres undefined), for which the melting point lay in the range of 143 to 144 °C.

As to `NC(=O)c1nc(-c2ccccc2)[nH]c1N`, the melting point turned out to be 300 °C.

Consider `NS(=O)(=O)c1ccc(C2=NC3(O)c4ccc(Cl)cc4CC3S2)cc1` (centres undefined), for which the melting point came to 160 °C.

In the case of `CNC(=O)Nc1ccccc1`, the melting point was in the range of 149 to 150 °C.

Turning to `N#CC1(N)CCc2cccc(Cl)c2C1` (centres undefined), the melting point fell in the range of 67 to 69 °C.

In turn, `CCCc1nc2ccccc2n1CCC1CCN(c2ccccc2-c2nnn[nH]2)CC1` yielded a melting point of 231 to 233 °C.

The compound `CCCCNC(=O)NS(=O)(=O)c1ccc(CCNC(=O)N2CC(C)=CC2=O)cc1` displayed a melting point of 189 to 191 °C.

On to `C[C@H](NC1Cc2ccccc2C1)C(=O)O`, for which the melting point came to 285 °C.

On to `O=S1(=O)NCN(C2CC2)c2c1ccc(F)c2F`, for which the melting point was 160 to 162 °C.

`CCOC(=O)c1cnn2c(-c3ccccc3C(F)(F)F)ccnc12`: the melting point was 148 to 149 °C.

In turn, `O=S(=O)(/C=C/c1ccc(Cl)cc1)Nc1ccc(F)cc1` came in with a melting point of 105 to 107 °C.

`O=C(NCc1ccccc1)c1ccc(OC2SCC(O)C(O)C2O)cn1` (centres undefined) displayed a melting point of 89 to 91 °C.

In turn, `O=C1c2ccc(CCCCc3ccccc3)cc2CCN1OC1CCCCO1` (centres undefined) had a melting point of 62 to 64 °C.

`Cc1c(C)c2c(c(C)c1NC(=O)CC(C)(C)C)C(N1CCCCC1)C(C)(C)O2` (centres undefined): the melting point lay within 229 to 230 °C.

In turn, `COc1cc(N2CCC(N3CCN(C)CC3)CC2)ccc1Nc1ncc2ccc(-c3ccccc3S(=O)(=O)N(C)C)n2n1` yielded a melting point of 198 to 205 °C.

Turning to `Cc1ccccc1C1CCN(C2CCCCC2O)CC1` (single isomer, unassigned; (-)), the melting point is 116 to 118 °C.

`CCCCCCCCCCCCCCCCCC(O)c1ccc(C(=O)O)c(Cl)c1` (centres undefined) yielded a melting point of 93 to 96 °C.

Regarding `CSc1ncc2cc(-c3c(Cl)cccc3Cl)c(=NC(C)=O)n(C)c2n1`, the melting point was in the range of 229 to 231 °C.

The compound `COc1ccc(C(=O)Nc2ccccc2)cc1NC(=S)Nc1cccc(C(=O)O)c1` came in with a melting point of 196 to 197 °C.

As for `COc1ccc(Sc2cnc(NC(C)=O)s2)cc1`, the melting point fell in the range of 190 to 191 °C.

Take `CC(=O)Nc1ccc(OC(=O)C2CCc3c(c4ccccc4n3C(=O)c3ccccc3)C2)cc1` (centres undefined): the melting point was in the range of 166 to 168 °C.

The compound `CN(C)c1nc(N(C)Cc2ccc(O)cc2)nc(N(C)Cc2ccccc2O)n1` gave a melting point of 80 to 81 °C.

Compound `CCOC(=O)C1=C(C)NC(=S)N(C(=O)OCC)C1c1cccc(Cl)c1` (centres undefined) returned a melting point of 95 to 97 °C.

As for `CN(C)C12CC3CC(CC(O)(C3)C1)C2`, the melting point fell in the range of 60 to 64 °C.

In the case of `CCS(=O)(=O)c1ccc(C(=O)O)c(Cl)c1Cl`, the melting point was in the range of 170 to 172 °C.

The compound `CC(C)(C(=O)OCC(=O)c1ccccc1)n1c(=O)[nH]c2cccc(F)c2c1=O` had a melting point of 179 to 180 °C.

In turn, `COc1ccc(S(=O)(=O)N2Cc3ccccc3N(C(=O)c3ccc(-n4ccc(C)n4)cc3Cl)CC2C(=O)NO)cc1` (centres undefined) yielded a melting point of 189 to 191 °C.

`CCCCN(CCCC)CCN=c1sc2ccccc2s1`: the melting point is 122 to 123 °C.

As to `Cc1cc(C(O)=S)cc(N)c1Cc1ccccc1`, the melting point was in the range of 153 to 154 °C.

`CC(=O)c1ccc(CCCOc2c(C)cc(N3CN=C(C(F)(F)F)O3)cc2C)nn1`: the melting point is 86 to 87 °C.

`O=c1n(-c2cccc(Cl)c2)c(=O)n(SC(Cl)(Cl)Cl)n1SC(Cl)(Cl)Cl` had a melting point of 153 °C.

`C[Si](C)(C)C(N)Cc1ccccc1` (centres undefined) displayed a melting point of 67 to 68 °C.

The compound `ClCSc1ccccc1Br` gave a melting point of 28 to 30 °C.

`OCc1cc2cc(O)c(Cl)c(Cl)c2s1` displayed a melting point of 167 to 169 °C.

Turning to `COC(C)Cn1c(C)nc2cnc3ccccc3c21` (centres undefined), the melting point was in the range of 55 to 57 °C.

With `CCc1cccc(CC)c1NS(=O)(=O)c1ccc(C)cc1`, the melting point fell in the range of 130 to 131 °C.

`O=C(O)Cc1ccc2c(c1)CC(NS(=O)(=O)c1ccc(Cl)cc1)C2` (centres undefined) registered a melting point of 154 to 155 °C.

On to `CCCCc1nc(C)c(CC(=S)N(C)C)c(=O)n1Cc1ccc(-c2ccccc2-c2nnn[nH]2)cc1`, for which the melting point was in the range of 96.8 to 102 °C.

As for `O=C(NCCO[N+](=O)[O-])C1COc2ccccc2O1` (centres undefined), the melting point fell in the range of 69 to 71 °C.

Compound `N#Cc1ccc(-c2ccc(F)cc2)nc1Cl` came in with a melting point of 178 °C.

`COc1ccc2c(c1)S(=O)(=O)c1ccccc1C(=S)N2` returned a melting point of 250 to 252 °C.

Turning to `Cc1oc(-c2ccccc2)nc1COc1ccc(/C=C/C=C/C#N)cc1`, the melting point was in the range of 120 to 121 °C.

For the compound `Cc1ccc(-c2nc3n(n2)Cc2ccccc2-3)cc1`, the melting point is 207 to 208 °C.

In the case of `CNC(=O)c1cnn2c(C(=O)N3CCN(C(=O)OC(C)(C)C)CC3)c(Cc3cccc(F)c3C)c(-c3ccccc3)c2c1`, the melting point fell in the range of 153 to 154 °C.

`CCN(CC)c1nc(N)c2cc(OC)c(OC)cc2n1` gave a melting point of 167 to 169 °C.

Compound `CN(C)CCOc1ccc(N(C(=O)c2ccc(F)cc2)c2ccccc2)cc1` had a melting point of 88.5 to 90 °C.

Compound `OCCSC1=NN(SCCO)CS1` came in with a melting point of 80 °C.

`N#Cc1cc(Br)c(NC(=O)NC(=O)c2c(F)cccc2F)cc1Cl` came in with a melting point of 247 °C.

For `Nc1cc(Cl)c(Cl)c(Br)c1[N+](=O)[O-]`, the melting point was in the range of 132 to 134 °C.

`CC1Cc2c(c(Cl)cc(Cl)c2-n2nc(C(C)(C)C)oc2=O)O1` (centres undefined) returned a melting point of 112 to 115 °C.

Compound `COc1ccc(C=C2CCc3c2nc2ccc(C)cn2c3=O)cc1` showed a melting point of 210 to 211 °C.

For `O=C(OCc1ccccc1)N1C=CC(c2cccc(Cl)c2Cl)C=C1`, the melting point lay within 69 to 70 °C.

The record behind these values is a melting point compilation (Tetko et al.; mined from patent text by program, amines drawn as free bases though some values may be those of a salt).
